# According to patent US20100035862A1, “NOVEL AZA-CYCLIC INDOLE-2-CARBOXAMIDES AND METHODS OF USE THEREOF” (ABBOTT LABORATORIES, priority 2008, published 2010):
# Molecular target: T1, human α4β2 (Homo sapiens, UniProt P17787+P43681)
# T1 construct: expressed in transfected cells
# Assay: Calcium flux assay (FLIPR) in HEK 293 cells expressing NNR subtype; potentiation of submaximal agonist response
# Assay type: cell-based
# Conditions: α4β2 PAM; response to submaximal agonist (EC20-30%) such as nicotine
# From the text: One manner to characterize α4β2 PAM activity is by characterization in clonal cell lines (for example, human embryonic kidney 293 cells) expressing the human neuronal nicotinic acetylcholine receptor subtype α4β2, particularly by use of Fluorescent Image Plate Reader technology. Effects on calcium flux or membrane potential changes can be assessed. Such assays have been reported and further details for carrying out, the assays can be obtained in International Publication No. WO 2006/114400. Another method to identify and characterize allosteric modulator activity is by expressing the α4β2 subunits in Xenopus oocytes, and by measuring electrophysiological effects on ligand-evoked current responses as previously described in Curtis, L., et al., Molecular Pharmacology, 61: 127-135, 2002.
# To determine the effectiveness of representative compounds of this invention as ligands for α4β2 PAM activity, the compounds of the invention can be evaluated according to the Calcium Flux Assay described below.
# Calcium Flux Assays Using Cells Expressing NNR Subtypes
# Human embryonic kidney (HEK) 293 cells stably expressing human α4β2 or (3β4 combinations are grown to confluency in 162 cm^2 tissue culture flasks in DMEM media supplemented with 10% FBS and 25 μg/mL zeocin and 200 μg/mL hygromycin B. Cells expressing rat or ferret subunits may also be used. For assessing α3* or α7* selectivity, IMR-32 cells may also be used. IMR-32 neuroblastoma cells (ATCC) are grown to confluency in 162 cm^2 tissue culture flasks in minimum essential media supplemented with 10% FBS and 1 mM sodium pyruvate, 1% non-essential amino acids and 1% antibiotic-antimycotic. For the calcium flux assay, c cells are then dissociated using cell dissociation buffer and 100-150 μL per well of 3.5×10^5 cells/mL cell suspension (˜50,000-100,000 cells/well) was plated into 96-well black plates (poly-D-lysine precoated) with clear bottom and maintained for 24-48 hours in a tissue culture incubator at 37° C. under an atmosphere of 5% CO2: 95% air. Other clonal cell lines or primary cell cultures that express endogenous α4* nicotinic receptors may also be used in this assay. Calcium flux was measured using calcium-3 assay kit (Molecular Devices, Sunnyvale, Calif.) or fluo-4 (Invitrogen). A stock solution of the dye was prepared by dissolving each vial supplied by the vendor in Hank's balanced-salt solution buffer (HBSS) or 150 mM NMDG, 20 mM calcium chloride containing 10 mM HEPES. The stock-solution was diluted 1:20 using a the same buffer before use. The growth media was removed from the cells. The cells were loaded with 100 μL of the dye per well and incubated at room temperature for up to one hour for HEK 293 clonal stable cell lines or 30 minutes-45 minutes at 37° C. for IMR-32 cells. Fluorescence measurements were read simultaneously from all the wells by a Fluorometic Imaging Plate Reader (FLIPR) at an excitation wavelength of 480 nm and an emission wavelength of 520 nm. Baseline fluorescence was measured for the first 6 seconds at which 3× concentrations of modulator/test compounds were added to the cell plate at 50 μL and incubated for five minutes. The fluorescence intensity was captured every second for the first 1 minute followed by every 5 seconds for an additional 4 minutes. This procedure was followed by 50 μL of 4× concentration of agonist and readings were taken for a period of 3-5 minutes as described above.
# The ability of test compounds to positively modulate the response (i.e., increase the response) induced by a submaximal concentration of agonist (EC20-30%) such as nicotine is measured. Potentiation is measured based on peak fluorescence responses. by screening compounds at fixed concentrations or in a concentration-response manner to derive, EC50 values. The concentration dependence of changes in fluorescence responses is fitted by nonlinear regression analysis (GraphPad Prism, San Diego, Calif.) to obtain EC50 values. […]
# T1 sequence (P43681 29-627 limits assumed): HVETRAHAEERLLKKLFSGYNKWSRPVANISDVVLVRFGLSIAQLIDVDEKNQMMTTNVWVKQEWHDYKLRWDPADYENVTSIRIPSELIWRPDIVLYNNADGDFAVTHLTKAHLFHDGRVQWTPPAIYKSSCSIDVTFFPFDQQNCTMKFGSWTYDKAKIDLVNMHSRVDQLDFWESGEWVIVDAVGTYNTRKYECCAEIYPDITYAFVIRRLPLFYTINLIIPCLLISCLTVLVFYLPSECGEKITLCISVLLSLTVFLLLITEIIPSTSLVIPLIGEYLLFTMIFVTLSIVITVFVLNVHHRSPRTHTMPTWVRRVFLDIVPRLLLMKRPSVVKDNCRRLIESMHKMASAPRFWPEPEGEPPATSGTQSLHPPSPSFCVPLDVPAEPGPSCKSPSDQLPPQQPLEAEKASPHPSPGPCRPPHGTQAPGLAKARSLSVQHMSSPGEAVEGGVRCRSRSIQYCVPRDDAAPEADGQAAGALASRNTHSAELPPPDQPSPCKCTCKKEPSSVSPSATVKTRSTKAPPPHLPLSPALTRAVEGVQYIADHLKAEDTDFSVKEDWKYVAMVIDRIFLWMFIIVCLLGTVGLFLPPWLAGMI
# T1 sequence (P17787 26-502): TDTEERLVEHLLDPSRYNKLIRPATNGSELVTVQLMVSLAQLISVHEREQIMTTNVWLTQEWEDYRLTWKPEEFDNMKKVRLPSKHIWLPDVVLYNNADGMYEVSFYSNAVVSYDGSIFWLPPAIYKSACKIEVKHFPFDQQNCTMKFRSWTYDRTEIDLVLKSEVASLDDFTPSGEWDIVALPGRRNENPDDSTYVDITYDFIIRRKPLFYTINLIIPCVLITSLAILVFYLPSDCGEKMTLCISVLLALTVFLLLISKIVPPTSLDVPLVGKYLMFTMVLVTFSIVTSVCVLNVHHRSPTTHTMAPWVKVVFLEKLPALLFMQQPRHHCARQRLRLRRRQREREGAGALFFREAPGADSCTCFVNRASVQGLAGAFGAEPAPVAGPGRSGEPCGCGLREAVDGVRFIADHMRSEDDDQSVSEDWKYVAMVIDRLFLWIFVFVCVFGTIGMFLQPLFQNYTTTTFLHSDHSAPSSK
row,Structure (SMILES),Activity (allostertc effects—potentiation of fluorescence responses)
1,"O=C(N[C@@H]1CCNC1)c1cc2ccc(-c3ccccc3)cc2[nH]1 [Example 13, (R)-6-phenyl-N-(pyrrolidin-3-yl)-1H-indole-2-carboxamide]",a (“a” denotes active compounds (>100%))
2,CN1CC[C@@H](NC(=O)c2cc3cc(Cl)ccc3[nH]2)C1 [Example 31],a (“a” denotes active compounds (>100%))
3,"Cc1ccc(C)c2c(C)c(C(=O)N[C@@H]3CCNC3)[nH]c12 [Example 1, (R)-3,4,7-trimethyl-N-(pyrrolidin-3-yl)-1H-indole-2-carboxamide]",a (“a” denotes active compounds (>100%))
4,"Cc1ccc(C)c2c(C)c(C(=O)N[C@@H]3CCCNC3)[nH]c12 [Example 108, (R)-3,4,7-trimethyl-N-(piperidin-3-yl)-1H-indole-2-carboxamide]",a (“a” denotes active compounds (>100%))
5,"Cc1ccc(C)c2c(C)c(C(=O)N[C@@H]3CCCN(C)C3)[nH]c12.Cc1ccc(S(=O)(=O)O)cc1 [Example 109, (R)-3,4,7-trimethyl-N-(1-methylpiperidin-3-yl)-1H-indole-2-carboxamide tosylate]",a (“a” denotes active compounds (>100%))

# Now from value to compound:
row,Activity (allostertc effects—potentiation of fluorescence responses),Structure (SMILES)
1,a (“a” denotes active compounds (>100%)),"CN1CC[C@H](NC(=O)c2cc3c(Cl)cc(Cl)cc3[nH]2)C1 [Example 40, (S)-4,6-dichloro-N-(1-methylpyrrolidin-3-yl)-1H-indole-2-carboxamide]"
2,a (“a” denotes active compounds (>100%)),"O=C(N[C@@H]1CCCNC1)c1cc2c(Cl)cc(Cl)cc2[nH]1 [Example 114, (R)-4,6-dichloro-N-(piperidin-3-yl)-1H-indole-2-carboxamide]"
3,a (“a” denotes active compounds (>100%)),"CC(C)(C)c1ccc2cc(C(=O)N[C@@H]3CCNC3)[nH]c2c1 [Example 10, (R)-6-tert-butyl-N-(pyrrolidin-3-yl)-1H-indole-2-carboxamide]"
